From US8778616B2, “Method of using CCR3 binding agents to detect choroidal neovascularization” (University of Kentucky Research Foundation, priority 2009, dated 2014)

B1: CCL24: CCR3 ligand eotaxin-2, recombinant human (Peprotech) (protein, UniProt O00175 27-119, looked up)
C-C motif chemokine 24: VVIPSPCCMFFVSKRIPENRVVSYQLSSRSTCLKAGVIFTTKKGQQFCGDPKQEWVQRYMKNLDAKQKKASPRARAVAVKGPVQRYPGNQTTC

Columns and labels:
human CECs [1] = assay: Proliferation assay (BrdU ELISA); type: cell-based; settings: 24 h stimulation; CCL11 10 ng/ml, CCL24 100 ng/ml, CCL26 2 μg/ml; versus BSA
Procedure: Proliferation assay. Human CECs were synchronized for cell cycle state by first cultivating them in EGM2-MV media (Lonza) supplemented with 10% FBS (Gibco) to achieve complete confluence and then by overnight serum starvation in MCDB131 media (Gibco) with 0.1% FBS. They were passaged to 96-well plates at a density of 5,000 cells per well, followed by stimulation for 24 h with eotaxin-1, 2 or 3 (10 ng, 100 ng and 2 μg per ml, respectively; Peprotech) in MCDB131 media with 0.1% FBS. After 24 h, cell viability was measured with BrdU ELISA (Chemicon) according to manufacturer's instructions.

human CECs [2] = assay: F-actin polymerization assay; type: cell-based; settings: CCL11 10 ng/ml, CCL24 100 ng/ml, CCL26 2 μg/ml; versus PBS
Procedure: F-actin Polymerization Assay. Human CECs were seeded in black-walled 96-well plates and grown to 70-80% confluence in fully supplemented EGM-2MV. Cultures were serum starved overnight in basal media and then stimulated with recombinant human eotaxin-1 (10 ng/ml), eotaxin-2 (100 ng/ml), eotaxin-3 (2 μg/ml) (Peprotech), or vehicle control (PBS). At 0, 10, 30, 60, or 120 sec time-points, cells were fixed in 3.7% paraformaldehyde for 10 min, washed, permeabilized in PBS with 0.1% Triton-X, and then stained with rhodamine labelled Phalloidin (1:200, Invitrogen) per manufacturer's recommendations. Plates were analyzed on a fluorescent plate reader (Synergy 4, Biotek) followed by fluorescent microscopy (Nikon E800).

Rac-1 = Rac-1 activation pull-down assay; type: cell-based; settings: human CECs; CCL11 10 ng/ml, CCL24 100 ng/ml, CCL26 2 μg/ml; versus unstimulated (0 s) cells
Procedure: Rac-1 activation. Human CECs were cultured in EGM-2 MV containing 5% FBS. Prior to starting the assay, cells were serum starved with basal medium (MCDB131) supplemented with 1% FBS overnight. Cells were stimulated for designated times with Eotaxin-1, 2 and 3 (10 ng/ml, 100 ng/ml and 2 μg/ml respectively). Equal amounts of lysates (500 μg) were incubated with GST-Pak1-PBD agarose beads (Upstate) to pull-down active GTP-bound Rac-1 at 4° C. for 1 h with rotation. The samples were subsequently analyzed for bound Rac-1 by western blot analysis using an anti-Rac-1 antibody (Upstate).

CCR3 = CCR3 bioimaging: fundus angiography after intravenous injection; type: in vivo, mouse; settings: wild-type and Ccl2−/−×Ccr2−/− mice
Procedure: CCR3 bioimaging. F(ab) fragments were created from monoclonal IgG2a antibody raised against the extracellular domain of murine CCR3 (R&D Systems) and an isotype rat IgG2a (R&D Systems) using a commercially available papain-based kit (Pierce). Recovered fragments were conjugated with quantum dots (Invitrogen, QDot-800) and resuspended in sterile PBS. Ccl2^−/−×Ccr2^−/− mice were administered 100 μg of tagged CCR3 F(ab) or isotype F(ab) via tail vein injection after acquiring baseline fluorescent imaging using a Topcon retinal camera (TRC-50IX). Serial images were then acquired at 1, 4, and 12 h after which eyes were harvested and frozen in OCT for immunofluorescent analyses. Retinal images were analyzed (ImageNet, Topcon) by comparison to baseline and fluorescein angiographic data. Hyperfluorescent areas were then cropped, equally thresholded, and pseudocolored (Photoshop CS3, Adobe). Sections from QDot-conjugated CCR3 or rat IgG2a isotype F(ab) injected animals were fixed in 4% paraformaldehyde and blocked with 5% normal donkey serum/5% goat serum in PBS, stained with rat anti-mouse CD31 (BD Biosciences) and either rabbit anti-mouse CCR3 (Santa Cruz) or rabbit anti-Ki67 (Abcam) followed by appropriate fluorescent secondary antibodies (Alexa Fluor 488/594, Invitrogen), and evaluated by confocal laser scanning microscopy (Leica SP-5).

laser-induced CNV [3] = assay: Laser-induced CNV in Ccr3−/− mice (specificity of CCR3 blockade); type: in vivo, mouse; settings: n=5, P>0.1
Procedure: (§1) Mouse model of CNV. Laser photocoagulation (OcuLight GL, Iridex Corporation) was performed on mouse eyes to induce CNV, and CNV volumes were measured 7 days after injury by scanning laser confocal microscope (TCS SP, Leica) as previously described (Kleinman, et al., Nature. 452, 591-597 (2008)). Drug injections. Rat IgG2a neutralizing antibody against mouse CCR3 (R&D Systems), control rat IgG2a (Serotec), goat neutralizing antibody against mouse CCL11 (R&D Systems), goat neutralizing antibody against mouse CCL24 (R&D Systems), control goat IgG (Jackson Immunoresearch), or (S)-Methyl-2-naphthoylamino-3-(4-nitrophenyl)propionate (SB328437; Calbiochem) dissolved in DMSO were injected into the vitreous humor using a 33-gauge double-calibre needle (Ito Corporation) once, immediately after laser injury as previously described (Kleinman, et al., (2008) supra).
Animals. All animal experiments were in accordance with the guidelines of the University of Kentucky IACUC and the Association for Research in Vision and Ophthalmology. C57BL/6J and Kit^W-v/Kit^W-v mice were purchased from The Jackson Laboratory. […]

retina = assay: Retinal toxicity by fundus imaging and electroretinography; type: in vivo; settings: wild-type mice, fundus imaging and electrophysiological function; anti-VEGF-A: repeated intravitreous administration
Procedure: Electroretinography. Mice were dark adapted overnight and then anesthetized. Both eyes were positioned within a ColorBurst Ganzfeld stimulator (Diagnosys). Espion software (Diagnosys) was used to program a fully automated flash intensity series from which retinal responses were recorded.

laser-induced CNV [4] = assay: Laser-induced CNV in wild-type mice; type: in vivo, mouse; settings: single intraocular administration after laser injury, versus isotype IgG or vehicle
Procedure: as §1
Drug injections. […]

| Molecule | human CEC proliferation (human CECs [1]) | actin polymerization in human CECs (human CECs [2]) | active (GTP-bound) Rac-1 GTPase levels (Rac-1) | hyperfluorescence indicative of CNV on fluorescein angiography (CCR3) | CNV in Ccr3−/− mice (laser-induced CNV [3]) | retinal toxicity (retina) | laser-induced CNV (effect in words) (laser-induced CNV [4]) | laser-induced CNV (effect in words) (laser-induced CNV [4]; listed as (S)-Methyl-2-naphthoylamino-3-(4-nitrophenyl)propionate) |
| --- | --- | --- | --- | --- | --- | --- | --- | --- |
| CCL11: CCR3 ligand eotaxin-1, recombinant human (Peprotech) | induced human CEC proliferation | induced actin polymerization | increased levels of activate Rac-1 GTPase |  |  |  |  |  |
| O=C([O-])c1ccccc1-c1c2ccc(=O)cc-2oc2cc([O-])ccc12.[Na+].[Na+] [sodium fluorescein] |  |  |  | no areas of hyperfluorescence indicative of CNV |  |  |  |  |
| CCL26: CCR3 ligand eotaxin-3, recombinant human (Peprotech) | induced human CEC proliferation | induced actin polymerization | increased levels of activate Rac-1 GTPase |  |  |  |  |  |
| (S)-Methyl-2-naphthoylamino-3-(4-nitrophenyl)propionate [SB328437] |  |  |  |  | 109±16 % of control | neither CCR3 Ab nor CCR3 receptor antagonist induced retinal toxicity | reduced | suppressed laser injury-induced CNV in wild-type mice in a dose-dependent fashion |
| B1 | induced human CEC proliferation | induced actin polymerization | increased levels of activate Rac-1 GTPase |  |  |  |  |  |
